In the supplement of paper PMC10627819:

How the values were obtained:
B. subtilis 168 [1] = test: fitness (endpoint OD595 vs no drug) (fraction); higher = more growth
Summary of the method: (§1)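 Bacterial growth was followed in 384-well plates seeded at OD595 0.01, with 30 µl per well, or 55 µl for S. pneumoniae, in TSB, LB Lennox or CY at 37 °C. OD595 was read every 30 min for 14 h, and each reading had the first reading subtracted as background. Fitness is the background-corrected optical density at entry into stationary phase divided by the robust mean of the no-drug control wells. This ratio is capped at 1.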

S. aureus DSM 20231 [2] = test: as above
Summary of the method: as §1

S. pneumoniae D39V [3] = test: as above
Summary of the method: as §1

S. aureus Newman [4] = test: as above
Summary of the method: as §1

B. subtilis 168 [5] = test: Bliss interaction score (quartile over a dose matrix) (fitness difference); higher = more antagonism (negative = synergy)
Summary of the method: (§2)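 Quartiles summarise the Bliss score over technical, biological and donor/recipient replicates, where the score is observed minus expected fitness under a product model. Expected fitness uses single-drug values inferred from combination data. Fitness is OD595 at entry into stationary phase over the plate's robust no-drug mean, capped at 1.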

S. aureus DSM 20231 [6] = test: as above
Summary of the method: as §2

S. pneumoniae D39V [7] = test: as above
Summary of the method: as §2

S. aureus Newman [8] = test: as above
Summary of the method: as §2

[9] = first compound 1.25 µg/mL, partner 0.39 µg/mL
[10] = first compound 1.25 µg/mL, partner 0.78 µg/mL
[11] = first compound 1.25 µg/mL, partner 1.56 µg/mL
[12] = first compound 2.5 µg/mL, partner 0.39 µg/mL
[13] = first compound 2.5 µg/mL, partner 0.78 µg/mL
[14] = first compound 2.5 µg/mL, partner 1.56 µg/mL
[15] = first compound 5 µg/mL, partner 0.39 µg/mL
[16] = first compound 5 µg/mL, partner 0.78 µg/mL
[17] = first compound 5 µg/mL, partner 1.56 µg/mL
[18] = first compound 1.5 µg/mL, partner 1 µg/mL
[19] = first compound 1.5 µg/mL, partner 2 µg/mL
[20] = first compound 1.5 µg/mL, partner 4 µg/mL
[21] = first compound 3 µg/mL, partner 1 µg/mL
[22] = first compound 3 µg/mL, partner 2 µg/mL
[23] = first compound 3 µg/mL, partner 4 µg/mL
[24] = first compound 6 µg/mL, partner 1 µg/mL
[25] = first compound 6 µg/mL, partner 2 µg/mL
[26] = first compound 6 µg/mL, partner 4 µg/mL
[27] = first compound 1.25 µg/mL, partner 1 µg/mL
[28] = first compound 1.25 µg/mL, partner 2 µg/mL
[29] = first compound 1.25 µg/mL, partner 4 µg/mL
[30] = first compound 2.5 µg/mL, partner 1 µg/mL
[31] = first compound 2.5 µg/mL, partner 2 µg/mL
[32] = first compound 2.5 µg/mL, partner 4 µg/mL
[33] = first compound 5 µg/mL, partner 1 µg/mL
[34] = first compound 5 µg/mL, partner 2 µg/mL
[35] = first compound 5 µg/mL, partner 4 µg/mL
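Wherever Bliss interaction score (quartile over a dose matrix) is given: first quartile when negative (synergy) and third quartile when positive (antagonism).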

In the case of `C[n+]1ccc(-c2cc[n+](C)cc2)cc1` [Paraquat] + COc1ccc(C[C@H](N)C(=O)N[C@H]2[C@@H](O)[C@H](n3cnc4c(N(C)C)ncnc43)O[C@@H]2CO)cc1 [Puromycin], the fitness (B. subtilis 168 [1]; [9]) is reported as 0.957, the fitness (B. subtilis 168 [1]; [10]) is reported as 0.924 and the fitness (B. subtilis 168 [1]; [11]) is reported as 0.883. It also gave a fitness (B. subtilis 168 [1]; [12]) of 0.913, a fitness (B. subtilis 168 [1]; [13]) of 0.894 and a fitness (B. subtilis 168 [1]; [14]) of 0.858. The fitness (B. subtilis 168 [1]; [15]) was 0.792, the fitness (B. subtilis 168 [1]; [16]) was 0.779 and the fitness (B. subtilis 168 [1]; [17]) was 0.747. It also gave a fitness (S. aureus DSM 20231 [2]; [9]) of 0.978, a fitness (S. aureus DSM 20231 [2]; [10]) of 0.97 and a fitness (S. aureus DSM 20231 [2]; [11]) of 0.964. For the same compound, the fitness (S. aureus DSM 20231 [2]; first compound 1.25 µg/mL, partner 3.12 µg/mL, one replicate) was 0.926, the fitness (S. aureus DSM 20231 [2]; first compound 1.25 µg/mL, partner 6.24 µg/mL, one replicate) was 0.732 and the fitness (S. aureus DSM 20231 [2]; [12]) was 0.98. For the same compound, the fitness (S. aureus DSM 20231 [2]; [13]) was at least 1, the fitness (S. aureus DSM 20231 [2]; [14]) was at least 1 and the fitness (S. aureus DSM 20231 [2]; first compound 2.5 µg/mL, partner 3.12 µg/mL, one replicate) was 0.976. It also gave a fitness (S. aureus DSM 20231 [2]; first compound 2.5 µg/mL, partner 6.24 µg/mL, one replicate) of 0.703, a fitness (S. aureus DSM 20231 [2]; [15]) of 0.977 and a fitness (S. aureus DSM 20231 [2]; [16]) of 0.983. For the same compound, the fitness (S. aureus DSM 20231 [2]; [17]) was 0.989, the fitness (S. aureus DSM 20231 [2]; first compound 5 µg/mL, partner 3.12 µg/mL, one replicate) was 0.965 and the fitness (S. aureus DSM 20231 [2]; first compound 5 µg/mL, partner 6.24 µg/mL, one replicate) was 0.689. It also gave a fitness (S. pneumoniae D39V [3]; [18]) of 0.996, a fitness (S. pneumoniae D39V [3]; [19]) of 0.973 and a fitness (S. pneumoniae D39V [3]; [20]) of 0.852. It also gave a fitness (S. pneumoniae D39V [3]; [21]) of at least 1, a fitness (S. pneumoniae D39V [3]; [22]) of 0.982 and a fitness (S. pneumoniae D39V [3]; [23]) of 0.856. For the same compound, the fitness (S. pneumoniae D39V [3]; [24]) was at least 1, the fitness (S. pneumoniae D39V [3]; [25]) was 0.966 and the fitness (S. pneumoniae D39V [3]; [26]) was 0.861. The fitness (S. aureus Newman [4]; [9]) was 0.937, the fitness (S. aureus Newman [4]; [10]) was at least 1 and the fitness (S. aureus Newman [4]; [11]) was at least 1. For the same compound, the fitness (S. aureus Newman [4]; [12]) was 0.965, the fitness (S. aureus Newman [4]; [13]) was 0.99 and the fitness (S. aureus Newman [4]; [14]) was 0.971. It also gave a fitness (S. aureus Newman [4]; [15]) of 0.979, a fitness (S. aureus Newman [4]; [16]) of 0.981 and a fitness (S. aureus Newman [4]; [17]) of 0.994. It also gave a Bliss interaction score (B. subtilis 168 [5]) of 0.0238, a Bliss interaction score (S. aureus DSM 20231 [6]) of 0.0717 and a Bliss interaction score (S. pneumoniae D39V [7]) of 0.135. For the same compound, the Bliss interaction score (S. aureus Newman [8]) was 0.0892.

With `C[n+]1ccc(-c2cc[n+](C)cc2)cc1` [Paraquat] + Cc1cc(NS(=O)(=O)c2ccc(N)cc2)no1 [Sulfamethoxazol] the fitness (B. subtilis 168 [1]; first compound 1.25 µg/mL, partner 0.5 µg/mL, one replicate) was 0.922, the fitness (B. subtilis 168 [1]; [27]) was 0.928 and the fitness (B. subtilis 168 [1]; [28]) was 0.901. The fitness (B. subtilis 168 [1]; [29]) was 0.976, the fitness (B. subtilis 168 [1]; first compound 2.5 µg/mL, partner 0.5 µg/mL, one replicate) was at least 1 and the fitness (B. subtilis 168 [1]; [30]) was 0.901. The fitness (B. subtilis 168 [1]; [31]) was 0.883, the fitness (B. subtilis 168 [1]; [32]) was 0.911 and the fitness (B. subtilis 168 [1]; first compound 5 µg/mL, partner 0.5 µg/mL, one replicate) was 0.82. The fitness (B. subtilis 168 [1]; [33]) was 0.821, the fitness (B. subtilis 168 [1]; [34]) was 0.823 and the fitness (B. subtilis 168 [1]; [35]) was 0.853. It also gave a fitness (S. aureus DSM 20231 [2]; [27]) of 0.952, a fitness (S. aureus DSM 20231 [2]; [28]) of 0.959 and a fitness (S. aureus DSM 20231 [2]; [29]) of 0.946. For the same compound, the fitness (S. aureus DSM 20231 [2]; [30]) was 0.882, the fitness (S. aureus DSM 20231 [2]; [31]) was 0.866 and the fitness (S. aureus DSM 20231 [2]; [32]) was 0.842. It also gave a fitness (S. aureus DSM 20231 [2]; [33]) of 0.812, a fitness (S. aureus DSM 20231 [2]; [34]) of 0.868 and a fitness (S. aureus DSM 20231 [2]; [35]) of 0.885. The fitness (S. pneumoniae D39V [3]; [18]) was 0.979, the fitness (S. pneumoniae D39V [3]; [19]) was 0.971 and the fitness (S. pneumoniae D39V [3]; [20]) was 0.926. For the same compound, the fitness (S. pneumoniae D39V [3]; [21]) was 0.966, the fitness (S. pneumoniae D39V [3]; [22]) was 0.992 and the fitness (S. pneumoniae D39V [3]; [23]) was 0.931. It also gave a fitness (S. pneumoniae D39V [3]; [24]) of 0.995, a fitness (S. pneumoniae D39V [3]; [25]) of 0.986 and a fitness (S. pneumoniae D39V [3]; [26]) of 0.94. For the same compound, the fitness (S. aureus Newman [4]; [27]) was 0.977, the fitness (S. aureus Newman [4]; [28]) was 0.946 and the fitness (S. aureus Newman [4]; [29]) was 0.915. The fitness (S. aureus Newman [4]; first compound 1.25 µg/mL, partner 8 µg/mL, one replicate) was 0.949, the fitness (S. aureus Newman [4]; [30]) was 0.985 and the fitness (S. aureus Newman [4]; [31]) was 0.964. It also gave a fitness (S. aureus Newman [4]; first compound 2.5 µg/mL, partner 8 µg/mL, one replicate) of 0.818, a fitness (S. aureus Newman [4]; [33]) of 0.928 and a fitness (S. aureus Newman [4]; [34]) of 0.969. It also gave a fitness (S. aureus Newman [4]; [35]) of 0.881, a fitness (S. aureus Newman [4]; first compound 5 µg/mL, partner 8 µg/mL, one replicate) of 0.874 and a Bliss interaction score (B. subtilis 168 [5]) of 0.0341. For the same compound, the Bliss interaction score (S. aureus DSM 20231 [6]) was -0.0548, the Bliss interaction score (S. pneumoniae D39V [7]) was -0.0314 and the Bliss interaction score (S. aureus Newman [8]) was 0.0523.
